Data published in patent publication US20260256792A1, “TREATMENT OF CHRONIC SPONTANEOUS URTICARIA BY ADMINISTERING (R)-2-[3-[4-AMINO-3-(2-FLUORO-4-PHENOXY-PHENYL)PYRAZOLO[3,4-D]PYRIMIDIN-1-YL]PIPERIDINE-1-CARBONYL]-4-METHYL-4-[4-(OXETAN-3-YL)PIPERAZIN-1-YL]PENT-2-ENENITRILE” (priority 2023, published 2026).

Test system: moderate-to-severe chronic spontaneous urticaria (CSU)
Assay: Phase 2 CSU study: hives severity score over 7 days (HSS7)
Assay type: in vivo, human
Design: key to HSS7 Change from baseline, Median / HSS7, Median / HSS7, Max / HSS7 Change from baseline, Q1 / HSS7 Change from baseline, Q3 / HSS7 Change from baseline, Max: 7-day sum of daily hive scores, each 0 = none to 3 = >50 hives
Conditions: for median reduction in HSS7 at Week 12: omalizumab-naïve population; for HSS7, Mean (SD) / HSS7, Median: End of Study; for HSS7 change from baseline at Week 12, LS Mean / HSS7 change from baseline at Week 12, LS Mean Diff vs. placebo: ANCOVA
Text: The study comprises a 12 week, randomized, double-blind, placebo-controlled, multi-center, dose-ranging efficacy and safety phase, followed by a 40 week open label extension (OLE) phase (see FIG. 1).
The study consists of three phases and an optional OLE phase.
The UAS is a validated PRO measure. The daily UAS is the sum of the daily Hive Severity Score (HSS, ranging from 0=None to 3=more than 50 hives) and the daily Itch Severity Score (ISS, ranging from 0=None to 3=intense), the 2 key urticaria signs and symptoms which are wheals and itch. The daily UAS scores range from 0 to 6 point/day. Daily UAS scores are summed over 7-day period to create the UAS7, ranging from 0 to 42, and are composed of the HSS7 and ISS7 components. […] Patients were to complete the UAS using the e-diary. The e-diary was to be used once daily on the same time of each day recording of participant's answers to the urticaria activity score over 7 days (UAS7) questionnaire. For participants who entered the OLE phase, their answers to the UAS7 questionnaire were also to be collected from Week 20 to Week24 and from Week 48 to Week 52.
The following secondary endpoints were to be analyzed using the same approach as for the primary endpoint: • Change from baseline in UAS7 at Week 4 • Change from baseline in UAS7 at Week 12 (for US and US reference countries) • Change from baseline in ISS7 at Week 12 (except US and US reference countries) • Change from baseline in HSS7 at Week 12

[1] = 400 mg TID, Week 9, ITT Population
[2] = 400 mg TID, Week 9, Omalizumab-Naïve Population
[3] = 400 mg TID, Week 10, ITT Population
[4] = 400 mg TID, Week 11, ITT Population
[5] = 400 mg TID, Week 12, ITT population
[6] = 400 mg TID, patients with prior omalizumab use, last block under Week 12, double-blind period, WOCF imputation
[7] = 400 mg BID, Omalizumab-Naïve Population
[8] = 400 mg QPM, Omalizumab-Naïve Population
[9] = 400 mg TID, Patients with Prior Omalizumab Use
[10] = Omalizumab-Naïve Population with Outlier Removed from Analysis, 400 mg BID
[11] = Omalizumab-Naïve Population with Outlier Removed from Analysis, 400 mg QPM
[12] = Omalizumab-Naïve Population with Outlier Removed from Analysis, 400 mg TID
[13] = Omalizumab-naïve Population, 400 mg BID
[14] = Omalizumab-naïve Population, 400 mg QPM
[15] = Omalizumab-naïve Population, 400 mg TID

CC(C)(C=C(C#N)C(=O)N1CCC[C@@H](n2nc(-c3ccc(Oc4ccccc4)cc3F)c3c(N)ncnc32)C1)N1CCN(C2COC2)CC1 [rilzabrutinib, (R)-2-[3-[4-amino-3-(2-fluoro-4-phenoxy-phenyl)pyrazolo[3,4-d]pyrimidin-1-yl]piperidine-1-carbonyl]-4-methyl-4-[4-(oxetan-3-yl)piperazin-1-yl]pent-2-enenitrile] was tested, and the “HSS7 Postbaseline Mean (SD)” value (400 mg TID, Week 8, Omalizumab-Naïve Population) was 6.12 (4.80), the “HSS7 Postbaseline Mean (SD)” value (400 mg TID, Week 8, Omalizumab-Naïve Population with Outlier Removed from Analysis) was 6.12 (4.80) and the “HSS7 % Change difference for rilzabrutinib vs.placebo LS Mean (95% CI)” value (“HSS7 % Change difference … (95% CI)” below) [1] was −29.14 %. For the same molecule, the “HSS7 % Change from baseline LS Mean (SE)” value [1] was −53.06 (6.70) %, the “HSS7 Change difference for rilzabrutinib vs.placebo LS Mean (95% CI)” value (“HSS7 Change difference … (95% CI)” for short) [1] was −3.67 (−6.21, −1.13) and the “HSS7 Change from baseline LS Mean (SE)” value [1] was −7.79 (0.94). For the same molecule, the “HSS7 Postbaseline Mean (SD)” value [1] was 5.43 (4.93), the “HSS7 % Change difference … (95% CI)” value [2] was −27.94 % and the “HSS7 Postbaseline Mean (SD)” value [2] was 5.88 (4.98). The “HSS7 Postbaseline Mean (SD)” value (400 mg TID, Week 9, Omalizumab-Naïve Population with Outlier Removed from Analysis) was 5.88 (4.98), the “HSS7 % Change difference … (95% CI)” value [3] was −28.54 % and the “HSS7 % Change from baseline LS Mean (SE)” value [3] was −56.54 (6.68) %. For the same molecule, the “HSS7 Change difference … (95% CI)” value [3] was −3.55 (−6.13, −0.97), the “HSS7 Change from baseline LS Mean (SE)” value [3] was −8.15 (0.96) and the “HSS7 Postbaseline Mean (SD)” value [3] was 5.39 (5.05). For the same molecule, the “HSS7 Postbaseline Mean (SD)” value (400 mg TID, Week 10, Omalizumab-Naïve Population) was 5.87 (5.06), the “HSS7 Postbaseline Mean (SD)” value (400 mg TID, Week 10, Omalizumab-Naïve Population with Outlier Removed from Analysis) was 5.87 (5.06) and the “HSS7 % Change difference … (95% CI)” value [4] was −28.42 %. The “HSS7 % Change from baseline LS Mean (SE)” value [4] was −54.96 (6.95) %, the “HSS7 Change difference … (95% CI)” value [4] was −3.55 (−6.14, −0.95) and the “HSS7 Change from baseline LS Mean (SE)” value [4] was −8.09 (0.96). For the same molecule, the “HSS7 Postbaseline Mean (SD)” value [4] was 5.60 (5.41), the “HSS7 Postbaseline Mean (SD)” value (400 mg TID, Week 11, Omalizumab-Naïve Population) was 6.17 (5.40) and the “HSS7 Postbaseline Mean (SD)” value (400 mg TID, Week 11, Omalizumab-Naïve Population with Outlier Removed from Analysis) was 6.17 (5.40). For the same molecule, the “HSS7 % Change difference … (95% CI)” value [5] was −29.54 %, the “HSS7 % Change from baseline LS Mean (SE)” value [5] was −57.27 (7.06) % and the “HSS7 Change difference … (95% CI)” value [5] was −3.42 (−6.11, −0.74). For the same molecule, the “HSS7 Change from baseline LS Mean (SE)” value [5] was −8.31 (1.00), the “HSS7 Postbaseline Mean (SD)” value [5] was 4.92 (4.89) and the “HSS7 Postbaseline Mean (SD)” value (400 mg TID, Week 12, Omalizumab-Naïve Population) was 5.23 (4.86). The “HSS7 Postbaseline Mean (SD)” value (400 mg TID, Week 12, Omalizumab-Naïve Population with Outlier Removed from Analysis) was 5.23 (4.86), the “median reduction in HSS7 at Week 12” value (400 mg TID) was −7.64 and the “median reduction in HSS7 at Week 12” value (400 mg TID, outlier removed) was −7.89. For the same molecule, the “HSS7, Max” value [6] was 8.2, the “HSS7, Min” value [6] was 4.0 and the “HSS7 Change from baseline, Max” value [6] was 0.0. For the same molecule, the “HSS7 Change from baseline, Mean (SD)” value [6] was −2.00 (2.83), the “HSS7 Change from baseline, Median” value [6] was −2.00 and the “HSS7 Change from baseline, Min” value [6] was −4.0. For the same molecule, the “HSS7 Change from baseline, Q1” value [6] was −4.00, the “HSS7 Change from baseline, Q3” value [6] was 0.00 and the “HSS7 Percent change from baseline, Max” value [6] was 0.0%. For the same molecule, the “HSS7 Percent change from baseline, Mean (SD)” value [6] was −25.00 (35.36) percent, the “HSS7 Percent change from baseline, Median” value [6] was −25.00% and the “HSS7 Percent change from baseline, Min” value [6] was −50.0%. For the same molecule, the “HSS7 Percent change from baseline, Q1” value [6] was −50.00%, the “HSS7 Percent change from baseline, Q3” value [6] was 0.00% and the “HSS7, Mean (SD)” value [7] was 7.80 (8.76). The “HSS7, Median” value [7] was 7.00, the “HSS7, Mean (SD)” value [8] was 6.13 (9.09) and the “HSS7, Median” value [8] was 1.40. For the same molecule, the “HSS7, Mean (SD)” value (400 mg TID, Omalizumab-Naïve Population) was 10.00 (5.79), the “HSS7, Mean (SD)” value [9] was 6.08 (2.95) and the “HSS7, Median” value [9] was 6.08. For the same molecule, the “HSS7 at Week 12, Mean” value (ITT Population, 400 mg BID) was 7.08, the “HSS7 at Week 12, Median” value (ITT Population, 400 mg BID) was 6.00 and the “HSS7 change from baseline at Week 12, Mean” value (ITT Population, 400 mg BID) was −7.81. For the same molecule, the “HSS7 change from baseline at Week 12, Median” value (ITT Population, 400 mg BID) was −5.30, the “HSS7 change from baseline at Week 12, LS Mean” value (ITT Population, 400 mg BID) was −6.78 and the “HSS7 change from baseline at Week 12, LS Mean Diff vs. placebo” value (“HSS7 change … LS Mean Diff vs. placebo” below) (ITT Population, 400 mg BID) was −1.89. For the same molecule, the “HSS7 at Week 12, Median” value (ITT Population, 400 mg QPM) was 8.75, the “HSS7 change from baseline at Week 12, Mean” value (ITT Population, 400 mg QPM) was −5.05 and the “HSS7 change from baseline at Week 12, Median” value (ITT Population, 400 mg QPM) was −4.00. The “HSS7 change from baseline at Week 12, LS Mean” value (ITT Population, 400 mg QPM) was −4.75, the “HSS7 change … LS Mean Diff vs. placebo” value (ITT Population, 400 mg QPM) was 0.14 and the “HSS7 at Week 12, Mean” value (ITT Population, 400 mg TID) was 4.92. For the same molecule, the “HSS7 at Week 12, Median” value (ITT Population, 400 mg TID) was 3.50, the “HSS7 change from baseline at Week 12, Mean” value (ITT Population, 400 mg TID) was −9.62 and the “HSS7 change from baseline at Week 12, Median” value (ITT Population, 400 mg TID) was −9.00. The “HSS7 change from baseline at Week 12, LS Mean” value (ITT Population, 400 mg TID) was −8.31, the “HSS7 change … LS Mean Diff vs. placebo” value (ITT Population, 400 mg TID) was −3.42 and the “HSS7 at Week 12, Mean” value [10] was 7.52. For the same molecule, the “HSS7 at Week 12, Median” value [10] was 7.00, the “HSS7 change from baseline at Week 12, Mean” value [10] was −7.09 and the “HSS7 change from baseline at Week 12, Median” value [10] was −4.50. For the same molecule, the “HSS7 change from baseline at Week 12, LS Mean” value [10] was −6.56, the “HSS7 change … LS Mean Diff vs. placebo” value [10] was −2.20 and the “HSS7 at Week 12, Median” value [11] was 8.58. For the same molecule, the “HSS7 change from baseline at Week 12, Mean” value [11] was −4.85, the “HSS7 change from baseline at Week 12, Median” value [11] was −4.00 and the “HSS7 change from baseline at Week 12, LS Mean” value [11] was −4.57. The “HSS7 change … LS Mean Diff vs. placebo” value [11] was −0.22, the “HSS7 at Week 12, Mean” value [12] was 5.23 and the “HSS7 at Week 12, Median” value [12] was 4.08. The “HSS7 change from baseline at Week 12, Mean” value [12] was −8.77, the “HSS7 change from baseline at Week 12, Median” value [12] was −8.00 and the “HSS7 change from baseline at Week 12, LS Mean” value [12] was −7.89. For the same molecule, the “HSS7 change … LS Mean Diff vs. placebo” value [12] was −3.54, the “HSS7 at Week 12, Mean” value [13] was 7.52 and the “HSS7 at Week 12, Median” value [13] was 7.00. For the same molecule, the “HSS7 change from baseline at Week 12, Mean” value [13] was −7.09, the “HSS7 change from baseline at Week 12, Median” value [13] was −4.50 and the “HSS7 change from baseline at Week 12, LS Mean” value [13] was −6.52. For the same molecule, the “HSS7 change … LS Mean Diff vs. placebo” value [13] was −2.12, the “HSS7 at Week 12, Median” value [14] was 8.58 and the “HSS7 change from baseline at Week 12, Mean” value [14] was −4.85. For the same molecule, the “HSS7 change from baseline at Week 12, Median” value [14] was −4.00, the “HSS7 change from baseline at Week 12, LS Mean” value [14] was −4.49 and the “HSS7 change … LS Mean Diff vs. placebo” value [14] was −0.09. The “HSS7 at Week 12, Mean” value [15] was 5.23, the “HSS7 at Week 12, Median” value [15] was 4.08 and the “HSS7 change from baseline at Week 12, Mean” value [15] was −8.77. For the same molecule, the “HSS7 change from baseline at Week 12, Median” value [15] was −8.00 and the “HSS7 change from baseline at Week 12, LS Mean” value [15] was −7.64.
